Target: T1, Human M4 (Homo sapiens, UniProt P08173)
T1 construct: expressed in transfected cells
T1 sequence (P08173 1-479): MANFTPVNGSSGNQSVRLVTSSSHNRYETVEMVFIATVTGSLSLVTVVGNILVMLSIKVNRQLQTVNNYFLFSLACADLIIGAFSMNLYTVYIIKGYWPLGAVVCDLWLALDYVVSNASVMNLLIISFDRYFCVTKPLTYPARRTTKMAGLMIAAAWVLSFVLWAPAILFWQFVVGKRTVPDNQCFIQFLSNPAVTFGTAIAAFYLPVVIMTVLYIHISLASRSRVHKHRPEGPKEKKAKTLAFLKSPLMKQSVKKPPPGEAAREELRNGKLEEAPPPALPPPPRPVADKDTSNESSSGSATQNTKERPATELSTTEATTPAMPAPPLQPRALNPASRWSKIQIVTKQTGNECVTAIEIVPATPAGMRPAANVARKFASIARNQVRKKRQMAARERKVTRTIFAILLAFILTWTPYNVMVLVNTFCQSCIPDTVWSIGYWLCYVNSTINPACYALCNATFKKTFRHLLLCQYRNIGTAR
Assay: mAChR M4 cell-based functional assay (calcium flux, potentiation of EC20 acetylcholine response), hM4-Gqi5 CHO-K1 cells
Details: Table 3; for Emax at 30 µM: CHO-K1, Human M4, % ACh maximum at 30 μM, read-out: Emax (% ACh maximum at 30 μM); for EC50: potentiation of EC20 acetylcholine response, calcium flux, CHO-K1 cells, read-out: Human M4 EC50
Summary of the method: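 CHO-K1 cells stably expressing human M4 with chimeric Gqi5, loaded with Fluo-4 AM 50 min at 37 °C; calcium flux read by FDSS. 11-point 1:3 compound curves added, then EC20 acetylcholine at 144 s; potentiation of the EC20 response fitted by four-parameter logistic to give EC50 and Emax.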

SMILES | Emax at 30 µM [%] | EC50 [nM]
Cc1cc2nncn2nc1N1CCc2ncc(-c3ccc(C(F)(F)F)nc3)cc2C1 [Compound 196, 6-(7-methyl-[1,2,4]triazolo[4,3-b]pyridazin-6-yl)-3-(6-(trifluoromethyl)pyridin-3-yl)-5,6,7,8-tetrahydro-1,6-naphthyridine] | 80 | 708
Cc1cc2nncn2nc1N1CCc2ncc(-c3cccnc3)cc2C1 [Compound 199, 6-(7-methyl-[1,2,4]triazolo[4,3-b]pyridazin-6-yl)-3-(pyridin-3-yl)-5,6,7,8-tetrahydro-1,6-naphthyridine] | 84 | 334
Cc1cc2nncn2nc1N1CCc2ncc(Nc3nn(C)c4ccccc34)cc2C1 [Compound 204, N-(1-methyl-1H-indazol-3-yl)-6-(7-methyl-[1,2,4]triazolo[4,3-b]pyridazin-6-yl)-5,6,7,8-tetrahydro-1,6-naphthyridin-3-amine] | 62 | 3550
Cc1cc2nncn2nc1N1CCc2ncc(Nc3csc4ncccc34)cc2C1 [Compound 205, N-(6-(7-methyl-[1,2,4]triazolo[4,3-b]pyridazin-6-yl)-5,6,7,8-tetrahydro-1,6-naphthyridin-3-yl)thieno[2,3-b]pyridin-3-amine] | 65 | 477
Cc1c(N2CCc3ncc(-c4ccc(N5CCCC5)nc4)cc3C2)nn2cnnc2c1C [Compound 207, 6-(7,8-dimethyl-[1,2,4]triazolo[4,3-b]pyridazin-6-yl)-3-(6-(pyrrolidin-1-yl)pyridin-3-yl)-5,6,7,8-tetrahydro-1,6-naphthyridine] | 73 | 401
Cc1c(N2CCc3ncc(-c4ccc(N5CC6(C5)CC(F)(F)C6)nc4)cc3C2)nn2cnnc2c1C [Compound 208, 3-(6-(6,6-difluoro-2-azaspiro[3.3]heptan-2-yl)pyridin-3-yl)-6-(7,8-dimethyl-[1,2,4]triazolo[4,3-b]pyridazin-6-yl)-5,6,7,8-tetrahydro-1,6-naphthyridine] | 96 | 463
Cc1c(N2CCc3ncc(Nc4nn(C)c5ccccc45)cc3C2)nn2cnnc2c1C [Compound 210, 6-(7,8-dimethyl-[1,2,4]triazolo[4,3-b]pyridazin-6-yl)-N-(1-methyl-1H-indazol-3-yl)-5,6,7,8-tetrahydro-1,6-naphthyridin-3-amine] | 69 | 900
Cc1cc(Nc2cnc3c(c2)CN(c2nn4cnnc4c(C)c2C)CC3)n(CCC(C)C)n1 [Compound 211, 6-(7,8-dimethyl-[1,2,4]triazolo[4,3-b]pyridazin-6-yl)-N-(1-isopentyl-3-methyl-1H-pyrazol-5-yl)-5,6,7,8-tetrahydro-1,6-naphthyridin-3-amine] | 38 | 4120
Cc1cc(Nc2cnc3c(c2)CN(c2nn4cnnc4c(C)c2C)CC3)n(CC(C)C)n1 [Compound 212, 6-(7,8-dimethyl-[1,2,4]triazolo[4,3-b]pyridazin-6-yl)-N-(1-isobutyl-3-methyl-1H-pyrazol-5-yl)-5,6,7,8-tetrahydro-1,6-naphthyridin-3-amine] | 41 | 5410
CCCCn1nc(C)cc1Nc1cnc2c(c1)CN(c1nn3cnnc3c(C)c1C)CC2 [Compound 213, N-(1-butyl-3-methyl-1H-pyrazol-5-yl)-6-(7,8-dimethyl-[1,2,4]triazolo[4,3-b]pyridazin-6-yl)-5,6,7,8-tetrahydro-1,6-naphthyridin-3-amine] | 52 | 2480
Cc1cc(Nc2cnc3c(c2)CN(c2nn4cnnc4c(C)c2C)CC3)n(C(C)C)n1 [Compound 214, 6-(7,8-dimethyl-[1,2,4]triazolo[4,3-b]pyridazin-6-yl)-N-(1-isopropyl-3-methyl-1H-pyrazol-5-yl)-5,6,7,8-tetrahydro-1,6-naphthyridin-3-amine] | 45 | 5500
Cc1c(N2CCc3ncc(-c4ccc(N5CCC(F)(F)CC5)nc4)cc3C2)nn2cnnc2c1C [Compound 215, 3-(6-(4,4-difluoropiperidin-1-yl)pyridin-3-yl)-6-(7,8-dimethyl-[1,2,4]triazolo[4,3-b]pyridazin-6-yl)-5,6,7,8-tetrahydro-1,6-naphthyridine] | 86 | 351

These reach a lower EC50. Values come first.

Emax at 30 µM [%] | EC50 [nM] | SMILES
72 | 281 | Cc1c(N2CCc3ncc(-c4ccc(-n5ccnc5)nc4)cc3C2)nn2cnnc2c1C [Compound 192, 3-(6-(1H-imidazol-1-yl)pyridin-3-yl)-6-(7,8-dimethyl-[1,2,4]triazolo[4,3-b]pyridazin-6-yl)-5,6,7,8-tetrahydro-1,6-naphthyridine]
93 | 94 | Cc1cc2nncn2nc1N1CCc2ncc(-c3ccns3)cc2C1 [Compound 193, 5-(6-(7-methyl-[1,2,4]triazolo[4,3-b]pyridazin-6-yl)-5,6,7,8-tetrahydro-1,6-naphthyridin-3-yl)isothiazole]
88 | 292 | Cc1ncc(-c2cnc3c(c2)CN(c2nn4cnnc4cc2C)CC3)s1 [Compound 194, 2-methyl-5-(6-(7-methyl-[1,2,4]triazolo[4,3-b]pyridazin-6-yl)-5,6,7,8-tetrahydro-1,6-naphthyridin-3-yl)thiazole]
89 | 200 | Cc1nc(C)c(-c2cnc3c(c2)CN(c2nn4cnnc4cc2C)CC3)s1 [Compound 195, 2,4-dimethyl-5-(6-(7-methyl-[1,2,4]triazolo[4,3-b]pyridazin-6-yl)-5,6,7,8-tetrahydro-1,6-naphthyridin-3-yl)thiazole]
82 | 176 | Cc1cc2nncn2nc1N1CCc2ncc(-c3ccc(C4CC4)nc3)cc2C1 [Compound 197, 3-(6-cyclopropylpyridin-3-yl)-6-(7-methyl-[1,2,4]triazolo[4,3-b]pyridazin-6-yl)-5,6,7,8-tetrahydro-1,6-naphthyridine]
93 | 206 | Cc1ccc(-c2cnc3c(c2)CN(c2nn4cnnc4cc2C)CC3)cn1 [Compound 198, 6-(7-methyl-[1,2,4]triazolo[4,3-b]pyridazin-6-yl)-3-(6-methylpyridin-3-yl)-5,6,7,8-tetrahydro-1,6-naphthyridine]
93 | 53 | Cc1c(N2CCc3ncc(C4CC4)cc3C2)nn2cnnc2c1C [Compound 200, 3-cyclopropyl-6-(7,8-dimethyl-[1,2,4]triazolo[4,3-b]pyridazin-6-yl)-5,6,7,8-tetrahydro-1,6-naphthyridine]
94 | 63 | Cc1c(N2CCc3ncc(Nc4ccnn4C)cc3C2)nn2c(C(F)(F)F)nnc2c1C [Compound 201, 6-(7,8-dimethyl-3-(trifluoromethyl)-[1,2,4]triazolo[4,3-b]pyridazin-6-yl)-N-(1-methyl-1H-pyrazol-5-yl)-5,6,7,8-tetrahydro-1,6-naphthyridin-3-amine]
95 | 227 | COc1ccc(-c2cnc3c(c2)CN(c2nn4cnnc4cc2C)CC3)cn1 [Compound 202, 3-(6-methoxypyridin-3-yl)-6-(7-methyl-[1,2,4]triazolo[4,3-b]pyridazin-6-yl)-5,6,7,8-tetrahydro-1,6-naphthyridine]
35 | 82 | Cc1cc2nncn2nc1N1CCc2ncc(Nc3nsc4ncccc34)cc2C1 [Compound 203, N-(6-(7-methyl-[1,2,4]triazolo[4,3-b]pyridazin-6-yl)-5,6,7,8-tetrahydro-1,6-naphthyridin-3-yl)isothiazolo[5,4-b]pyridin-3-amine]
96 | 53 | Cc1cc2nncn2nc1N1CCc2ncc(N3CCCn4nccc43)cc2C1 [Compound 206, 3-(6,7-dihydropyrazolo[1,5-a]pyrimidin-4(5H)-yl)-6-(7-methyl-[1,2,4]triazolo[4,3-b]pyridazin-6-yl)-5,6,7,8-tetrahydro-1,6-naphthyridine]
99 | 71 | Cc1c(N2CCc3ncc(N4CCCn5nccc54)cc3C2)nn2cnnc2c1C [Compound 209, 3-(6,7-dihydropyrazolo[1,5-a]pyrimidin-4(5H)-yl)-6-(7,8-dimethyl-[1,2,4]triazolo[4,3-b]pyridazin-6-yl)-5,6,7,8-tetrahydro-1,6-naphthyridine]
82 | 224 | Cc1c(N2CCc3ncc(-c4ccc(N5CCCC(F)C5)nc4)cc3C2)nn2cnnc2c1C (stereo not drawn) [Compound 216, 6-(7,8-dimethyl-[1,2,4]triazolo[4,3-b]pyridazin-6-yl)-3-(6-(3-fluoropiperidin-1-yl)pyridin-3-yl)-5,6,7,8-tetrahydro-1,6-naphthyridine]
83 | 223 | Cc1c(N2CCc3ncc(-c4ccc(N5CCC5)nc4)cc3C2)nn2cnnc2c1C [Compound 217, 3-(6-(azetidin-1-yl)pyridin-3-yl)-6-(7,8-dimethyl-[1,2,4]triazolo[4,3-b]pyridazin-6-yl)-5,6,7,8-tetrahydro-1,6-naphthyridine]
89 | 186 | Cc1c(N2CCc3ncc(C(C)C)cc3C2)nn2cnnc2c1C [Compound 218, 6-(7,8-dimethyl-[1,2,4]triazolo[4,3-b]pyridazin-6-yl)-3-isopropyl-5,6,7,8-tetrahydro-1,6-naphthyridine]
